Key:
Type in all cases: in vivo
Digitaria sanguinalis = assay: Herbicidal action post-emergence, greenhouse pot test; conditions: application rate 20 g/ha
Setaria viridis = assay: as above; conditions: application rate 20 g/ha
Method: (§1) Seeds of mono- and dicotyledonous weed plants and crop plants were laid out in sandy loam soil in plastic or wood-fiber pots, covered with soil and grown under controlled growth conditions in a greenhouse. 2 to 3 weeks after sowing, the trial plants were treated at the one-leaf stage. The compounds of the invention formulated in the form of wettable powders (WP) or as emulsion concentrates (EC) were then sprayed onto the green parts of the plant as an aqueous suspension or emulsion with addition of 0.5% additive at a water application rate equivalent to 600 L/ha. After the trial plants had stood for about 3 weeks in the greenhouse, under optimal growth conditions, the effect of the preparations was scored visually by comparison with untreated controls. For example, 100% efficacy=plants have died, 0% efficacy=like control plants. Tables A1 to A16 below show the efficacies of selected compounds of the general formula (I) according to tables I.1 to I.50 on various harmful plants and an application rate corresponding to 80 g/ha or lower that were obtained by the aforementioned trial method.

Polygonum convolvulus = assay: as above
Method: as §1

Veronica persica = assay: as above
Method: as §1

Viola tricolor = assay: as above; conditions: application rate 20 g/ha
Method: as §1

Matricaria inodora = assay: as above; conditions: application rate 20 g/ha
Method: as §1

Echinochloa crus-galli = assay: as above; conditions: application rate 20 g/ha
Method: as §1

Abutilon theophrasti = assay: as above; conditions: application rate 20 g/ha
Method: as §1

Stellaria media = assay: as above; conditions: application rate 20 g/ha
Method: as §1

Pharbitis purpurea = assay: as above
Method: as §1

Amaranthus retroflexus = assay: as above; conditions: application rate 20 g/ha
Method: as §1

Triticum aestivum = assay: Crop compatibility post-emergence, greenhouse pot test
Method: as §1, with “plants.” for “plants. Tables A1 to A16 below show the efficacies of selected compounds of the general formula (I) according to tables I.1 to I.50 on various harmful plants and an application rate corresponding to 80 g/ha or lower that were obtained by the aforementioned trial method.”
(§2) Crop plant compatibilities were also scored correspondingly.
(§3) The effects observed are reported here on selected crop plants by comparison, with the untreated controls (values in %).

Oryza sativa = assay: as above
Method: as §1, with “plants.” for “plants. Tables A1 to A16 below show the efficacies of selected compounds of the general formula (I) according to tables I.1 to I.50 on various harmful plants and an application rate corresponding to 80 g/ha or lower that were obtained by the aforementioned trial method.”
as §2, §3

Triticum aestivum (Efficacy in %) (Triticum aestivum; application rate 5 g/ha)	Oryza sativa (Efficacy in %) (Oryza sativa; application rate 20 g/ha)	Triticum aestivum (Efficacy in %) (Triticum aestivum; application rate 20 g/ha)	Structure (SMILES)	Digitaria sanguinalis (Efficacy in %) (Digitaria sanguinalis)	Setaria viridis (Efficacy in %) (Setaria viridis)	Polygonum convolvulus (Efficacy in %) (Polygonum convolvulus; application rate 20 g/ha)	Veronica persica (Efficacy in %) (Veronica persica; application rate 20 g/ha)	Viola tricolor (Efficacy in %) (Viola tricolor)	Matricaria inodora (Efficacy in %) (Matricaria inodora)	Echinochloa crus-galli (Efficacy in %) (Echinochloa crus-galli)	Abutilon theophrasti (Efficacy in %) (Abutilon theophrasti)	Stellaria media (Efficacy in %) (Stellaria media)	Pharbitis purpurea (Efficacy in %) (Pharbitis purpurea; application rate 20 g/ha)	Amaranthus retroflexus (Efficacy in %) (Amaranthus retroflexus)	Oryza sativa (Efficacy in %) (Oryza sativa; application rate 5 g/ha)	Veronica persica (Efficacy in %) (Veronica persica; application rate 5 g/ha)	Polygonum convolvulus (Efficacy in %) (Polygonum convolvulus; application rate 5 g/ha)	Pharbitis purpurea (Efficacy in %) (Pharbitis purpurea; application rate 5 g/ha)
0%	–	–	CCCCOC(=O)COC(=O)C(C)Sc1cc(-n2c(=O)cc(C(F)(F)F)n(C)c2=O)c(F)cc1Cl (stereo not shown) [I.1-51]	90%	100%	100%	100%	100%	100%	100%	100%	100%	100%	100%	–	–	–	–
–	0%	20%	CCC(Sc1cc(-n2c(=O)cc(C(F)(F)F)n(C)c2=O)c(F)cc1Cl)C(=O)OCC1CCC(=O)O1 (stereo not shown) [I.2-145, (5-Oxotetrahydrofuran-2-yl)methyl 2-({2-chloro-4-fluoro-5-[3-methyl-2,6-dioxo-4-(trifluoromethyl)-3,6-dihydropyrimidin-1(2H)-yl]phenyl}sulfanyl)butanoate]	100%	100%	100%	100%	100%	100%	100%	100%	100%	–	100%	–	–	–	–
–	10%	10%	CCOC(=O)COC(=O)C(CC(C)C)Sc1cc(-n2c(=O)cc(C(F)(F)F)n(C)c2=O)c(F)cc1Cl (stereo not shown) [I.4-43]	–	–	100%	100%	100%	90%	–	100%	80%	–	100%	–	–	–	–
10%	–	–	CCOC(=O)COC(=O)CSc1cc(-n2c(=O)cc(C(F)(F)F)n(C)c2=O)c(F)cc1Cl [I.8-43]	–	100%	100%	100%	100%	100%	90%	100%	80%	100%	100%	–	–	–	–
20%	–	–	CC(C)OC(=O)COC(=O)CSc1cc(-n2c(=O)cc(C(F)(F)F)n(C)c2=O)c(F)cc1Cl [I.8-44]	–	100%	–	100%	100%	100%	–	100%	100%	100%	100%	–	–	100%	–
20%	–	–	Cn1c(C(F)(F)F)cc(=O)n(-c2cc(SCC(=O)OCC(=O)OCc3ccccc3)c(Cl)cc2F)c1=O [I.8-46]	–	100%	100%	100%	100%	100%	90%	100%	100%	100%	100%	–	–	–	–
–	0%	20%	CCCCOC(=O)COC(=O)CSc1cc(-n2c(=O)cc(C(F)(F)F)n(C)c2=O)c(F)cc1Cl [I.8-51]	100%	100%	100%	100%	100%	100%	90%	100%	–	100%	100%	–	–	–	–
–	20%	20%	CCCCC(Sc1cc(-n2c(=O)cc(C(F)(F)F)n(C)c2=O)c(F)cc1Cl)C(=O)OCCC(=O)OCC (stereo not shown) [I.47-3]	100%	100%	100%	100%	100%	100%	80%	100%	–	100%	100%	–	–	–	–

The remaining lines, values behind:

Structure (SMILES)	Triticum aestivum (Efficacy in %) (Triticum aestivum; application rate 5 g/ha)	Oryza sativa (Efficacy in %) (Oryza sativa; application rate 20 g/ha)	Triticum aestivum (Efficacy in %) (Triticum aestivum; application rate 20 g/ha)	Digitaria sanguinalis (Efficacy in %) (Digitaria sanguinalis)	Setaria viridis (Efficacy in %) (Setaria viridis)	Polygonum convolvulus (Efficacy in %) (Polygonum convolvulus; application rate 20 g/ha)	Veronica persica (Efficacy in %) (Veronica persica; application rate 20 g/ha)	Viola tricolor (Efficacy in %) (Viola tricolor)	Matricaria inodora (Efficacy in %) (Matricaria inodora)	Echinochloa crus-galli (Efficacy in %) (Echinochloa crus-galli)	Abutilon theophrasti (Efficacy in %) (Abutilon theophrasti)	Stellaria media (Efficacy in %) (Stellaria media)	Pharbitis purpurea (Efficacy in %) (Pharbitis purpurea; application rate 20 g/ha)	Amaranthus retroflexus (Efficacy in %) (Amaranthus retroflexus)	Oryza sativa (Efficacy in %) (Oryza sativa; application rate 5 g/ha)	Veronica persica (Efficacy in %) (Veronica persica; application rate 5 g/ha)	Polygonum convolvulus (Efficacy in %) (Polygonum convolvulus; application rate 5 g/ha)	Pharbitis purpurea (Efficacy in %) (Pharbitis purpurea; application rate 5 g/ha)
CC(Sc1cc(-n2c(=O)cc(C(F)(F)F)n(C)c2=O)c(F)cc1Cl)C(=O)OCC1CCC(=O)O1 (stereo not shown) [I.1-145]	–	–	–	–	–	–	–	–	–	–	–	–	–	–	20%	–	–	–
CCOC(=O)C1(COC(=O)C(C)Sc2cc(-n3c(=O)cc(C(F)(F)F)n(C)c3=O)c(F)cc2Cl)CCOCC1 (stereo not shown) [I.1-293]	–	–	–	100%	90%	–	100%	100%	100%	90%	100%	100%	–	100%	–	–	–	–
CCOC(=O)CCOC(=O)C(CC(C)C)Sc1cc(-n2c(=O)cc(C(F)(F)F)n(C)c2=O)c(F)cc1Cl (stereo not shown) [I.4-3, 3-Ethoxy-3-oxopropyl 2-({2-chloro-4-fluoro-5-[3-methyl-2,6-dioxo-4-(trifluormethyl)-3,6-dihydropyrimidin-1(2H)-yl]phenyl}sulfanyl)-4-methylpentanoate]	–	–	–	–	90%	–	80%	100%	80%	–	100%	–	–	100%	–	–	–	–
CCOC(=O)CCOC(=O)C(Sc1cc(-n2c(=O)cc(C(F)(F)F)n(C)c2=O)c(F)cc1Cl)C(C)C (stereo not shown) [I.6-3, 3-Ethoxy-3-oxopropyl 2-({2-chloro-4-fluoro-5-[3-methyl-2,6-dioxo-4-(trifluoromethyl)-3,6-dihydropyrimidin-1(2H)-yl]phenyl}sulfanyl)-3-methylbutanoate]	–	20%	–	100%	100%	–	100%	100%	100%	–	100%	100%	–	100%	–	–	–	–
CCOC(=O)COC(=O)C(Sc1cc(-n2c(=O)cc(C(F)(F)F)n(C)c2=O)c(F)cc1Cl)C(C)C (stereo not shown) [I.6-43, 2-Ethoxy-2-oxoethyl 2-({2-chloro-4-fluoro-5-[3-methyl-2,6-dioxo-4-(trifluoromethyl)-3,6-dihydropyrimidin-1(2H)-yl]phenyl}sulfanyl)-3-methylbutanoate]	–	0%	–	–	–	–	–	100%	–	–	100%	90%	–	–	–	100%	–	–
CCOC(=O)COC(=O)C(COC)Sc1cc(-n2c(=O)cc(C(F)(F)F)n(C)c2=O)c(F)cc1Cl (stereo not shown) [I.7-43]	–	–	–	100%	–	–	–	–	–	–	–	–	–	–	–	–	–	–
CCOC(=O)CCOC(=O)C(C)Sc1cc(-n2c(=O)c(C)c(C(F)(F)F)n(C)c2=O)c(F)cc1Cl (stereo not shown) [I.11-3]	10%	10%	–	–	–	–	–	90%	90%	100%	100%	100%	–	–	–	–	–	–
CCOC(=O)CCOC(=O)C(CC)Sc1cc(-n2c(=O)c(C)c(C(F)(F)F)n(C)c2=O)c(F)cc1Cl (stereo not shown) [I.12-3]	–	0%	20%	100%	100%	100%	100%	100%	–	100%	100%	100%	–	100%	–	–	–	100%

From patent US11274083B2, “Substituted thiophenyl uracils, salts thereof and the use thereof as herbicidal agents” (Syngenta Crop Protection AG, priority 2017, dated 2022)
